Laboratory results from PMC10379611 (International Journal of Molecular Sciences, 2023).

Experiments:
[1] = target: T1, ENT1 (Homo sapiens, UniProt Q99808); assay: ENT1-mediated uridine uptake in ENT1-MDCKII cells; type: cell-based
T1 construct: expressed in transfected cells; host or cells: MDCKII (lentiviral transduction)
T1 sequence (Q99808 1-456): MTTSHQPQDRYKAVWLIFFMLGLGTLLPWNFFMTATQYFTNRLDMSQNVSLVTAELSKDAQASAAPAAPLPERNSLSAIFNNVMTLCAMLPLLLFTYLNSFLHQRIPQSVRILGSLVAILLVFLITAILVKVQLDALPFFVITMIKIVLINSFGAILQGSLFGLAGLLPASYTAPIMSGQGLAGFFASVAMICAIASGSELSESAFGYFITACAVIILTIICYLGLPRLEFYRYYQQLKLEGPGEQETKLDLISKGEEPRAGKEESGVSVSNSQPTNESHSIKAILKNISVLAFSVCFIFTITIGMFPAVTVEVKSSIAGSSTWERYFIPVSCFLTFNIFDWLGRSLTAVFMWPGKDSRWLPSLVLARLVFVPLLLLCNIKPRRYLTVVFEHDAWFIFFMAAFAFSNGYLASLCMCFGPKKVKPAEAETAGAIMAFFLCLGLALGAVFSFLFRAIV
Experimental: ENT and CNT transporter interactions were investigated in transporter-overexpressing cell lines. Madin-Darby Canine Kidney II (MDCKII) cell lines overexpressing the human uptake transporters CNT1, CNT2, ENT1, and ENT2 were generated via lentiviral transduction. Cell cultures were maintained in Dulbecco’s modified Eagle’s medium (DMEM) and 4500 mg/L of glucose supplemented with GlutaMax^TM, 10% v/v fetal bovine serum (FBS), 100 units/mL penicillin, and 100 µg/mL streptomycin (all from Gibco/ThermoFisher, Waltham, MA, USA) at 37 °C in 5% CO2 at 95% humidity. For uptake inhibition assays, transporter-expressing cells and mock-transduced control cells were seeded on 96-well tissue culture plates at a density of 1 × 10^5 cells/well. […] To determine the amounts of accumulated radiolabeled substrates, cell lysates mixed with a liquid scintillation cocktail were measured with a MicroBeta2 microplate counter (PerkinElmer, Singapore).
Transporter-specific accumulation of the probe substrate was calculated using the following formula: ACCSpec = ACCTRP − ACCMock, where ACCTRP is the accumulation of the probe in transporter-expressing cells and ACCMock is the accumulation of the probe in control cells. Relative transporter-specific accumulation values were calculated as percentages of the control value (with vehicle only).

[2] = target: T2, ABCC4 (MRP4) (Homo sapiens, UniProt O15439); assay: ABCC4 vesicular transport (DHEAS), HEK293 inverted membrane vesicles; type: biochemical; settings: concentrations up to 200 μM
T2 construct: purchased Solvo Biotechnology, Budapest; host or cells: HEK293
T2 sequence (O15439 1-1325): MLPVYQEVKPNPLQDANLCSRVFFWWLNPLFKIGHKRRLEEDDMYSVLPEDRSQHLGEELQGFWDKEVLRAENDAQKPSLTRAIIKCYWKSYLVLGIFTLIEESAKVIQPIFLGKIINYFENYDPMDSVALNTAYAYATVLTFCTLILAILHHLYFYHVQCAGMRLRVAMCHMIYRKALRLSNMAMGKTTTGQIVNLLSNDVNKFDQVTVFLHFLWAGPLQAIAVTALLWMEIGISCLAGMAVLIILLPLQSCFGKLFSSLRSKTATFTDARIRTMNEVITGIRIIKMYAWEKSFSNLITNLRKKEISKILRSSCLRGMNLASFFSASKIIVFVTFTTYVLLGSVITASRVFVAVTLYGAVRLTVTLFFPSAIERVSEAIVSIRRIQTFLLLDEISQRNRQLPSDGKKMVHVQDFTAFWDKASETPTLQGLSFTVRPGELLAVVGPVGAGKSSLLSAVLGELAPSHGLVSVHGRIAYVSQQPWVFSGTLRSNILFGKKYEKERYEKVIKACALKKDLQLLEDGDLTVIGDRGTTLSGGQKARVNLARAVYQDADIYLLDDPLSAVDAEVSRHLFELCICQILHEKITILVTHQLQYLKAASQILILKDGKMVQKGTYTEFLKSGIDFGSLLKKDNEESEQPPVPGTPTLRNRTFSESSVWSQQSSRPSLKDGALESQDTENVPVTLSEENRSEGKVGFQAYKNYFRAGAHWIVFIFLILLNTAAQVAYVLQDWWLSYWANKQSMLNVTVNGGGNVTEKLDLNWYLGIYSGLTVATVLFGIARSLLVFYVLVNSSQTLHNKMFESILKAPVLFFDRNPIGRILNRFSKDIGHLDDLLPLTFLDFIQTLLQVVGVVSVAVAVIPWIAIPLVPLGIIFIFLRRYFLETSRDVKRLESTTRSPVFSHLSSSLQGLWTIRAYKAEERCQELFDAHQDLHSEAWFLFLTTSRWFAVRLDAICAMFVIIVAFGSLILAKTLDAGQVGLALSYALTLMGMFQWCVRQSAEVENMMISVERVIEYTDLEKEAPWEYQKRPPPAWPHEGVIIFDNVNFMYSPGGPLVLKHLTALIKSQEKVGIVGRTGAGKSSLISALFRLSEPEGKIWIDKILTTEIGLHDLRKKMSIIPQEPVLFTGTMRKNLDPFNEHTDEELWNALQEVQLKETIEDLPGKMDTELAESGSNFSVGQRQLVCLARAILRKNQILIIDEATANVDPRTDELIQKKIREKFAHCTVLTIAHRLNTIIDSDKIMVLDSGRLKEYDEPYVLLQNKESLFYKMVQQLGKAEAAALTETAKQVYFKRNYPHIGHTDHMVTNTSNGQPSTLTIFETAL

[3] = system: SARS-CoV-2; set-up: method as in PMID 34726479; settings: cell culture tests; cited from earlier work

SMILES	ENT1-mediated uridine transport, inhibited to % of the full activity ([1]; at 200 μM)	effect on ATP-dependent DHEAS uptake by ABCC4/MRP4 [2]	antiviral activity against SARS-CoV-2 [3]	ENT1 uridine transport remaining, % of full activity at 200 µM ([1]; read-out: ENT1-mediated uridine transport, inhibited to % of the full activity)
O=c1nc(NO)ccn1[C@@H]1O[C@H](CO)[C@@H](O)[C@H]1O [EIDD-1931]	about 50%	no significant effects		
CC(C)(C)[C@H](NC(=O)C(F)(F)F)C(=O)N1C[C@H]2[C@@H]([C@H]1C(=O)N[C@H](C#N)C[C@@H]1CCNC1=O)C2(C)C [Nirmatrelvir]			nanomolar range	
CC(C)C(=O)OC[C@H]1O[C@@H](n2ccc(NO)nc2=O)[C@H](O)[C@@H]1O [EIDD-2801, Molnupiravir]		no significant effects		~50%
